Read-outs that look alike come from different tables or passages of the source.
What was measured:
[1] = SD rats, cited from earlier work
BaF3-CD74-NTRK1 = molecular target: T1, BaF3-CD74-NTRK1 (Homo sapiens, UniProt P04629); test: Cell proliferation inhibition, Ba/F3-TRKs stable strain (CCK-8); format: cell-based, mouse; details: 72 hours, read-out: cell viability IC50 CD74-NTRK1
T1 construct: fused on or other part: P04233 (HLA class II histocompatibility antigen gamma chain)
From the text: (§1) The BaF3 cells (mouse pre-B cells) used in this experiment were purchased from the Japanese Cell Bank. All of the monoclonal stable strains, BaF3-CD74-NTRK1, BaF3-ETV6-NTRK2 and BaF3-ETV6-NTRK3 were constructed by our laboratory, and were identified by experiments such as positive control, protein expression and gene sequencing.
(§2) The brief steps of stable strain construction were as follows: constructed pCDNA3.1(+) plasmid vector carrying genes such as CD74-NTRK1, ETV6-NTRK2, ETV6-NTRK3; the plasmid was electroporated into Ba/F3 cells using Amaxa® Cell Line Nucleofector® Kit V; 48 hours after electroporation, geneticin (G418) with a final concentration of 1000 μg/mL was added to screen for two weeks, and the interleukin 3 (IL3) was removed to continue screening to obtain polyclonal stable strains; and then single clones were selected by limiting dilution method; the stable strains were then identified by the positive drugs, Western Blot (WB), and gene sequencing; the correct monoclonal through identification can be used to study the cell proliferation inhibitory activity of the inhibitors.
(§3) Cell proliferation inhibitory activity study: The cells in logarithmic growth phase were seeded into 96-well plates at 8000-12000 cells/well, and the inhibitors at different concentrations of (0-10 μM) were added the next day, and the culture was continued for 72 hours; then 10 μL of Cell Counting Kit-8 Cell Counting Reagent (CCK-8 Reagent) was added to each well, and continued to incubate for 1-3 hours; then its absorbance at 450 nm and 650 nm were measured with a super microplate reader. The median inhibitory concentration (IC50) was calculated using medical graphing software (GraphPad Prism 8.0.0).

BaF3-ETV6-NTRK2 = molecular target: T2, BaF3-ETV6-NTRK2 (Homo sapiens, UniProt Q16620); test: as above; format: cell-based, mouse; details: 72 hours, read-out: cell viability IC50 ETV6-NTRK2
T2 construct: fused on or other part: P41212 (Transcription factor ETV6)
T2 sequence (Q16620 538-822 limits assumed): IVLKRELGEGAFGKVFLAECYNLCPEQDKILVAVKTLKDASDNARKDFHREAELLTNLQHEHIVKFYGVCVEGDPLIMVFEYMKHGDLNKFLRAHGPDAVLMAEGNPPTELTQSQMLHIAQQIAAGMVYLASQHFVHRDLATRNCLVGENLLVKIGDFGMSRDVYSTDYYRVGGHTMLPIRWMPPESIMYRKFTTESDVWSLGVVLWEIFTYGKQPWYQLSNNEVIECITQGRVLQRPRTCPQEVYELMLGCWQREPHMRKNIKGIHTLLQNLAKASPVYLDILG
From the text: as §1, §2, §3

BaF3-ETV6-NTRK3 = molecular target: T3, BaF3-ETV6-NTRK3 (Homo sapiens, UniProt Q16288); test: as above; format: cell-based, mouse; details: 72 hours, read-out: cell viability IC50 ETV6-NTRK3
T3 construct: fused on or other part: P41212 (Transcription factor ETV6)
T3 sequence (Q16288 whole entry, the tested form may be a part): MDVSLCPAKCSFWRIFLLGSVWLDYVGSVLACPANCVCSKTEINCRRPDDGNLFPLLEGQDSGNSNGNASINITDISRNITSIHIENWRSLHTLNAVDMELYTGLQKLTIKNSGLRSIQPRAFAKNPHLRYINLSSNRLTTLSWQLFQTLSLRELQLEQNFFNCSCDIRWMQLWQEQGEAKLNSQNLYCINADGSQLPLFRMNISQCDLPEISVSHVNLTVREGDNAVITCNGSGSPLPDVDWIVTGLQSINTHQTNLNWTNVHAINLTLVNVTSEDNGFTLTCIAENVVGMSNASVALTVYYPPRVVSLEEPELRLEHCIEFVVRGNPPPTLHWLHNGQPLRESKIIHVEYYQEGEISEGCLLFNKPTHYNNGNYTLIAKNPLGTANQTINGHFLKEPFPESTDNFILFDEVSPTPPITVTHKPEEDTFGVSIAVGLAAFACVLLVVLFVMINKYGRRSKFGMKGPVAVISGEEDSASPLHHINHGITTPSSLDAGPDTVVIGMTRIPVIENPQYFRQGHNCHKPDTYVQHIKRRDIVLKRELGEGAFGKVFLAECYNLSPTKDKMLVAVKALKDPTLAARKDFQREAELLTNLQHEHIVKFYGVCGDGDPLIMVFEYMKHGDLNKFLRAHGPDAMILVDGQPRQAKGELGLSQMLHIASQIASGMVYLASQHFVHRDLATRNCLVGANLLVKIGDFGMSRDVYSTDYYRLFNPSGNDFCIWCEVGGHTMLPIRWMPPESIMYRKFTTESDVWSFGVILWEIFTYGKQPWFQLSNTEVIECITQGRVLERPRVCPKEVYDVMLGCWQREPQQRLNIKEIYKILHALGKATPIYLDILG
From the text: as §1, §2, §3

TRKC = molecular target: T4, TRKC (Homo sapiens, UniProt Q16288); test: Z'-LYTE kinase activity detection, TRKC; format: biochemical
T4 construct: purchased American Life Technologies PV3617
T4 sequence (Q16288 32-839): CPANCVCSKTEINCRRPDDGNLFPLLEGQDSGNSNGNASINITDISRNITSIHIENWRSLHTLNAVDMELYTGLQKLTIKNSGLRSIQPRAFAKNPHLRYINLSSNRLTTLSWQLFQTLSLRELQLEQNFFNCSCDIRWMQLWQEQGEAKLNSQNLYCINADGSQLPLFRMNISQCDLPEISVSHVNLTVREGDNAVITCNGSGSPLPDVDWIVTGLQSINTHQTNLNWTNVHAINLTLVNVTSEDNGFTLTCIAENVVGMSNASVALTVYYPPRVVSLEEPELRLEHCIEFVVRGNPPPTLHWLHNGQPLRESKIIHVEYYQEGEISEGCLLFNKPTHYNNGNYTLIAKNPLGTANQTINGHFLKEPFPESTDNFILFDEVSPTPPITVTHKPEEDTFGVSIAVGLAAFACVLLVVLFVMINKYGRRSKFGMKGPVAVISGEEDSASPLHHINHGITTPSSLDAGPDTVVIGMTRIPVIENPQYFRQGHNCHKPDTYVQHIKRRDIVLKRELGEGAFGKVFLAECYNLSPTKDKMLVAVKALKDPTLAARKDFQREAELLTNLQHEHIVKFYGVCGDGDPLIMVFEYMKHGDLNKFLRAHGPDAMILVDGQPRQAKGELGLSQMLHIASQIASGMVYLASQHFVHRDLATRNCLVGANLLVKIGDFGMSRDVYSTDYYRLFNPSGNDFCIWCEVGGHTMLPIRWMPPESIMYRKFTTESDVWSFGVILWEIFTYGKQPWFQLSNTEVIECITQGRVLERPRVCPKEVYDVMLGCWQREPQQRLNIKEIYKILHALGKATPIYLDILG

TRKA = molecular target: T5, TRKA (Homo sapiens, UniProt P04629); test: Z'-LYTE kinase activity detection, TRKA; format: biochemical
T5 construct: purchased American Life Technologies PV3144
T5 sequence (P04629 33-796): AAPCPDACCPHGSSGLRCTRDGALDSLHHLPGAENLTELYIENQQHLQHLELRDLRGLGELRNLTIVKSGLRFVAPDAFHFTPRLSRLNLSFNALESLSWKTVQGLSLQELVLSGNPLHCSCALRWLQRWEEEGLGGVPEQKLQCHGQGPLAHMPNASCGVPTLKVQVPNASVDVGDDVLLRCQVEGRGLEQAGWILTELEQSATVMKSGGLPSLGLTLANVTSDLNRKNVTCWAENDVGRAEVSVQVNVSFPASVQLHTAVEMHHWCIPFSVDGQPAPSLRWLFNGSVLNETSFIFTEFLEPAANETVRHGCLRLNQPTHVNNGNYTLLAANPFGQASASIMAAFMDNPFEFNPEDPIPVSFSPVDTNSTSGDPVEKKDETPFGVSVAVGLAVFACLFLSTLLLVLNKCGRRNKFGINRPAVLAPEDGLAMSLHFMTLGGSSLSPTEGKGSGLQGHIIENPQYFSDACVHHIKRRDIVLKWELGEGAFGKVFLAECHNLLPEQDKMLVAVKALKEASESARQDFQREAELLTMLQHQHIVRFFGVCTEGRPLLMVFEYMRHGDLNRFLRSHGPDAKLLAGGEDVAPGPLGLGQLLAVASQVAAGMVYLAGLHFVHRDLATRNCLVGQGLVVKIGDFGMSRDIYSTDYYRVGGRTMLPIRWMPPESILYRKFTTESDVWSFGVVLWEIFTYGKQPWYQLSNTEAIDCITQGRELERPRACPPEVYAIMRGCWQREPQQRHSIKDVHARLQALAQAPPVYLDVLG

TRKB = molecular target: T6, TRKB (Homo sapiens, UniProt Q16620); test: Z'-LYTE kinase activity detection, TRKB; format: biochemical
T6 construct: purchased American Life Technologies PV3616
T6 sequence (Q16620 32-822): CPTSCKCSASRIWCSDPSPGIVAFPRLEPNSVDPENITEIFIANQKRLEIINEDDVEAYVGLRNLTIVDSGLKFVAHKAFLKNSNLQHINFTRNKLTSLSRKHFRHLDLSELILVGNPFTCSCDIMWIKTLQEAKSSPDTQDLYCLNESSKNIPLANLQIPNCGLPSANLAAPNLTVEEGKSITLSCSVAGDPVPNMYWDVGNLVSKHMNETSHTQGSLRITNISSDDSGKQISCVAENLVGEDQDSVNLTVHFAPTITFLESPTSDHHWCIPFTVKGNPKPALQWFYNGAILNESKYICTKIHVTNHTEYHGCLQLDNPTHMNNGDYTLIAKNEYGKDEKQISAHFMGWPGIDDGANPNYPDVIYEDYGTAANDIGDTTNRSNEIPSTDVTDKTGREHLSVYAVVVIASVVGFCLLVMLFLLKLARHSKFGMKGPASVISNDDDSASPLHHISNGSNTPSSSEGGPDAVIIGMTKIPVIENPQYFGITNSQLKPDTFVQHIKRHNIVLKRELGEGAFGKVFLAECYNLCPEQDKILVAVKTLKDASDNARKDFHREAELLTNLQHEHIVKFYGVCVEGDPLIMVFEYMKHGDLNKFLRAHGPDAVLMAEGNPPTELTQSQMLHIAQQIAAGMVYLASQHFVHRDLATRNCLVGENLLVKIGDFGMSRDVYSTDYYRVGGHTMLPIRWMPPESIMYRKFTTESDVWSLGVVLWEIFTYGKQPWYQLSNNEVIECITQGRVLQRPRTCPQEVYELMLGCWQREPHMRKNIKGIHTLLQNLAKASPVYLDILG

Kit = Kit (Homo sapiens, UniProt P10721); test: Kinase selectivity, Z'-LYTE
Description: (§4) Enzymatic reaction: In a 384-well plate, added 5 μL of enzyme-substrate system [50 mM 4-hydroxyethylpiperazineethanesulfonic acid (HEPES) pH 7.5, 0.01% BRIJ-35, 10 mM of magnesium chloride (MgCl2), 1 mM of ethylene glycol bis(2-aminoethyl ether)tetraacetic acid (EGTA), 2 μM of Tyr 01 peptide substrate], transferred 5 nL of compound (concentration gradient) using an Echo520 Ultra-Micro Liquid Pipetting System. […] Shaked and mixed, then centrifuged, and reacted at 30° C. in the dark for 1.5 hours.

Bcr-Abl = Bcr-Abl (Homo sapiens, UniProt P00519); test: Kinase selectivity, Z'-LYTE
Chain of Bcr-Abl (P00519 242-493 limits assumed): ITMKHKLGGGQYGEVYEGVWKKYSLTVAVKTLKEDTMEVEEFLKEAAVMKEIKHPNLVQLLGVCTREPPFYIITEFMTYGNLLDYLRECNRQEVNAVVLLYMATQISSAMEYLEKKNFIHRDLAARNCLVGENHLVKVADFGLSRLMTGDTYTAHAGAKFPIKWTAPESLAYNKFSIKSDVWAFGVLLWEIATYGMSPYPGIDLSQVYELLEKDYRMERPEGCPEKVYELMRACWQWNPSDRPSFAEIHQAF
Description: as §4

SRC = SRC (Homo sapiens, UniProt P12931); test: Kinase selectivity, Z'-LYTE
Chain of SRC (P12931 whole entry, species assumed): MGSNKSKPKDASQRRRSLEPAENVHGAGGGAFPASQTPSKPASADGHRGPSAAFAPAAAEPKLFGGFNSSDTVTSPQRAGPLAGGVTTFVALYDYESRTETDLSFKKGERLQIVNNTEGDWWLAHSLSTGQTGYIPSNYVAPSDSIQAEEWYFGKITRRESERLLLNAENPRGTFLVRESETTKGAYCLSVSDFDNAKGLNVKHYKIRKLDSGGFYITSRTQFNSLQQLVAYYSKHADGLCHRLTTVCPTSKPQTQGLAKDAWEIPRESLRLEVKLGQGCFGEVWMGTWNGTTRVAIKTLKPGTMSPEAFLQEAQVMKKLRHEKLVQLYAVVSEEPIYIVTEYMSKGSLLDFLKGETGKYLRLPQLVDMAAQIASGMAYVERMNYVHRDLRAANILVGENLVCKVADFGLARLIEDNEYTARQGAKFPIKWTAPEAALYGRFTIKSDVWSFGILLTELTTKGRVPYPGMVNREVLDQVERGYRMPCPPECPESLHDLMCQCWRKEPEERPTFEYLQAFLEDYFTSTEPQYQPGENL
Description: as §4

VEGFR2 = VEGFR2 (Homo sapiens, UniProt P35968); test: Kinase selectivity, Z'-LYTE
Description: as §4

RET = RET (Homo sapiens, UniProt P07949); test: Kinase selectivity, Z'-LYTE
Description: as §4

PDGFRA = PDGFRA (Homo sapiens, UniProt P16234); test: Kinase selectivity, Z'-LYTE
Description: as §4

PDGFRB = PDGFRB (Homo sapiens, UniProt P09619); test: Kinase selectivity, Z'-LYTE
Description: as §4

T1 sequence (P04629 510-796 limits assumed): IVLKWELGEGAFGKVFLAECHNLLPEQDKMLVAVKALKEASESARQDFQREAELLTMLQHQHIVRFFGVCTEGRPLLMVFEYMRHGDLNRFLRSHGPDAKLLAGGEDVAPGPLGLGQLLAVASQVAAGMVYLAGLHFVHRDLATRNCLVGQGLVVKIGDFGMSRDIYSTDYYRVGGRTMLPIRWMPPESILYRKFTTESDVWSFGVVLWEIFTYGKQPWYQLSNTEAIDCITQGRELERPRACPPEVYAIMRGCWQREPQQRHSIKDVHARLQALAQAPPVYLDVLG

| IC50 (TRKC) | IC50 (TRKA) | IC50 (TRKB) | Compound | IC50 (BaF3-CD74-NTRK1) | IC50 (BaF3-ETV6-NTRK2) | IC50 (BaF3-ETV6-NTRK3) | other results |
| --- | --- | --- | --- | --- | --- | --- | --- |
| 10 to 100 nM | 10 to 100 nM | 10 to 100 nM | Cc1c(C#Cc2cnc3ccc(N4CC[C@H](O)C4)nn23)cccc1C(=O)Nc1cc(Cl)cc(C(F)(F)F)c1 [XS3-58, (S)—N-(3-CHLORO-5-(TRIFLUOROMETHYL)PHENYL)-3-((6-(3-HYDROXYPYRROLIDIN-1-YL)IMIDAZO[1,2-B]PYRIDAZIN-3-YL)ETHYNYL)-2-METHYLBENZAMIDE] | 100 to 1000 nM | 100 to 1000 nM | 10 to 100 nM | – |
| < 10 nM | < 10 nM | < 10 nM | Cc1c(C#Cc2cnc3ccc(N4CCC(N(C)C)CC4)nn23)cccc1C(=O)Nc1cccc(C(F)(F)F)c1 [XS3-57, 3-((6-(4-(DIMETHYLAMINO)PIPERIDIN-1-YL)IMIDAZO[1,2-B]PYRIDAZIN-3-YL)ETHYNYL)-2-METHYL-N-(3-(TRIFLUOROMETHYL)PHENYL)BENZAMIDE] | 10 to 100 nM | 100 to 1000 nM | 10 to 100 nM | – |
| 10 to 100 nM | 10 to 100 nM | 10 to 100 nM | Cc1c(C#Cc2cnc3ccc(N4CCC(N)CC4)nn23)cccc1C(=O)Nc1cc(Cl)cc(C(F)(F)F)c1 [XS3-131, 3-((6-(4-AMINOPIPERIDIN-1-YL)IMIDAZO[1,2-B]PYRIDAZIN-3-YL)ETHYNYL)-N-(3-CHLORO-5-(TRIFLUOROMETHYL)PHENYL)-2-METHYLBENZAMIDE] | 100 to 1000 nM | 100 to 1000 nM | 10 to 100 nM | – |
| 10 to 100 nM | 10 to 100 nM | 10 to 100 nM | Cc1c(C#Cc2cnc3ccc(NCCCCO)nn23)cccc1C(=O)Nc1cc(Cl)cc(C(F)(F)F)c1 [XS3-139, N-(3-CHLORO-5-(TRIFLUOROMETHYL)PHENYL)-3-((6-((4-HYDROXYBUTYL)AMINO)IMIDAZO[1,2-B]PYRIDAZINE-3-YL)ETHYNYL)-2-METHYLBENZAMIDE] | 10 to 100 nM | 10 to 100 nM | 10 to 100 nM | – |

The next lines start with the compound.

| Compound | IC50 (TRKC) | IC50 (TRKA) | IC50 (TRKB) | IC50 (BaF3-CD74-NTRK1) | IC50 (BaF3-ETV6-NTRK2) | IC50 (BaF3-ETV6-NTRK3) | other results |
| --- | --- | --- | --- | --- | --- | --- | --- |
| Cc1c(C#Cc2cnc3cnc(-c4ccc(N)cc4)cn23)cccc1C(=O)Nc1cc(CN2CCN(C)CC2)cc(C(C)C)c1 [Compound 9o] | – | – | – | – | – | – | AUC (0-∞) ([1]; intravenous injection, 5 mg/kg): 810.45 ng·h/mL; AUC(0-t) ([1]; intravenous injection, 5 mg/kg): 804.65 ng·h/mL; Clearance rate ([1]; intravenous injection, 5 mg/kg): 21.0085 mL/min/kg; Cmax ([1]; intravenous injection, 5 mg/kg): 1968.37 ng/mL; Tmax ([1]; intravenous injection, 5 mg/kg): 0.083 h; half-life ([1]; intravenous injection, 5 mg/kg): 2.03 h; BA ([1]; oral 25 mg/kg vs intravenous 5 mg/kg): 10.72%; AUC (0-∞) ([1]; oral, 25 mg/kg): 445.18 ng·h/mL; AUC(0-t) ([1]; oral, 25 mg/kg): 431.49 ng·h/mL; Cmax ([1]; oral, 25 mg/kg): 63.3 ng/mL; Tmax ([1]; oral, 25 mg/kg): 2 h; half-life ([1]; oral, 25 mg/kg): 4.77 h |
| CC(=O)N1CCN(c2ccc3ncc(C#Cc4cccc(C(=O)Nc5cc(Cl)cc(C(F)(F)F)c5)c4C)n3n2)CC1 [XS3-54, 3-((6-(4-ACETYLPIPERAZIN-1-YL)IMIDAZO[1,2-B]PYRIDAZIN-3-YL)ETHYNYL)-N-(3-CHLORO-5-(TRIFLUORO) METHYL)PHENYL)-2-METHYLBENZAMIDE] | < 10 nM | < 10 nM | 10 to 100 nM | 10 to 100 nM | 10 to 100 nM | 10 to 100 nM | – |
| Cc1c(C#Cc2cnc3ccc(N4CC[C@H](O)C4)nn23)cccc1C(=O)Nc1cccc(C(F)(F)F)c1 [XS3-35, (S)-3-((6-(3-HYDROXYPYRROLIDIN-1-YL)IMIDAZO[1,2-B]PYRIDAZIN-3-YL)ETHYNYL)-2-METHYL-N-(3-(TRIFLUOROMETHYL)PHENYL)BENZAMIDE] | < 10 nM | < 10 nM | 10 to 100 nM | 10 to 100 nM | 100 to 1000 nM | 10 to 100 nM | – |
| Cc1c(C#Cc2cnc3ncccn23)cccc1C(=O)Nc1cc(CN2CCN(C)CC2)cc(C(F)(F)F)c1 [XS2-161] | 100 to 1000 nM | 100 to 1000 nM | > 1000 nM | > 1000 nM | > 1000 nM | > 1000 nM | – |
| Cc1c(C#Cc2cnc3ccc(NCCN4CCOCC4)nn23)cccc1C(=O)Nc1cc(Cl)cc(C(F)(F)F)c1 [XS3-53, N-(3-CHLORO-5-(TRIFLUOROMETHYL)PHENYL)-2-METHYL-3-((6-((2-MORPHOLINOETHYL)AMINO)IMIDAZO[1,2-B]PYRIDAZIN-3-YL)ETHYNYL)BENZAMIDE] | < 10 nM | < 10 nM | 10 to 100 nM | 10 to 100 nM | 100 to 1000 nM | 10 to 100 nM | – |
| Cc1ccc(C(=O)Nc2cc(Cl)cc(C(F)(F)F)c2)cc1C#Cc1cnc2ccc(N3CCC(O)CC3)nn12 [XS4-128, N-(3-Chloro-5-(trifluoromethyl)phenyl)-3-((6-(4-hydroxypiperidin-1-yl)imidazo[1,2-B]pyridazine-3-yl)ethynyl)-4-methylbenzamide, reference compound] | – | – | – | – | – | – | IC50 (Kit): 93.5 nM; IC50 (Bcr-Abl): 129 nM; IC50 (SRC): 20.3 nM; IC50 (VEGFR2): 18.9 nM; IC50 (RET): 10.7 nM; IC50 (PDGFRA): 19.9 nM; IC50 (PDGFRB): 119 nM |

From US11834454B2, “Alkynylphenylbenzamide compounds and applications thereof” (SHENZHEN NEWDEL BIOTECH CO., LTD., priority 2021, dated 2023)
